In brackets after ≈: the same amount, converted by molar mass.
Tested on: not listed separately
Assay: Half life of the compound in phosphate buffer of pH 7.4 by HPLC-UV analysis
Assay type: physicochemical
Details: not given

Row | Compound | half-life [h]
1 | Cn1c(Cn2ccc(C(F)(F)F)c(Oc3cc(Cl)cc(C#N)c3)c2=O)nn(COP(=O)(O)O)c1=O | > 24

Tested on: not listed separately
Assay: Half life of the compound in phosphate buffer of pH 2.0 by HPLC-UV analysis
Assay type: physicochemical
Details: not given

Row | Compound | half-life [h]
2 | Cn1c(Cn2ccc(C(F)(F)F)c(Oc3cc(Cl)cc(C#N)c3)c2=O)nn(COP(=O)(O)O)c1=O | > 24

Tested on: not listed separately
Assay: Selectivity index, ratio of CC50 for mock-infected human MT4 cells to EC50 for HIV1 RES056 RES056 containing reverse transcriptase K103N + Y181C mutant infected in human MT4 cells
Assay type: toxicity, cell-based
Details: read-out: Selectivity Index

Row | Compound | selectivity ratio
3 | N#Cc1cc(Cl)cc(Oc2c(C(F)(F)F)ccn(CC(=O)Nc3ccc(F)cc3)c2=O)c1 | 1
4 | N#Cc1cc(Cl)cc(Oc2c(C(F)(F)F)ccn(CC(=O)Nc3ccncc3)c2=O)c1 | < 1
5 | CS(=O)(=O)c1ccc(NC(=O)Cn2ccc(C(F)(F)F)c(Oc3cc(Cl)cc(C#N)c3)c2=O)cc1 | < 1
6 | N#Cc1cc(Cl)cc(Oc2c(C(F)(F)F)ccn(CC(=O)Nc3ccc(C(F)(F)F)cc3)c2=O)c1 | < 1
7 | N#Cc1cc(Cl)cc(Oc2c(C(F)(F)F)ccn(CC(=O)Nc3cccnc3)c2=O)c1 | < 1
8 | N#Cc1cc(Cl)cc(Oc2c(C(F)(F)F)ccn(CC(=O)Nc3ccc([N+](=O)[O-])cc3)c2=O)c1 | 1
9 | CC(C)OC(=O)OCn1nc(Cn2ccc(C(F)(F)F)c(Oc3cc(Cl)cc(C#N)c3)c2=O)n(C)c1=O | 1
10 | Cn1c(Cn2ccc(C(F)(F)F)c(Oc3cc(Cl)cc(C#N)c3)c2=O)nn(COP(=O)(O)O)c1=O | 1

Tested on: Human immunodeficiency virus 2
Assay: Antiviral activity against HIV2 ROD infected in human MT4 cells assessed as inhibition of virus-induced cytopathic effect after 5 days by MTT assay
Details: Human immunodeficiency virus 2, ISOLATE ROD, MT4, 120 h

Row | Compound | EC50 [µM]
11 | N#Cc1cc(Cl)cc(Oc2c(C(F)(F)F)ccn(CC(=O)Nc3ccc(F)cc3)c2=O)c1 | > 269
12 | N#Cc1cc(Cl)cc(Oc2c(C(F)(F)F)ccn(CC(=O)Nc3ccncc3)c2=O)c1 | > 133
13 | CS(=O)(=O)c1ccc(NC(=O)Cn2ccc(C(F)(F)F)c(Oc3cc(Cl)cc(C#N)c3)c2=O)cc1 | > 112
14 | N#Cc1cc(Cl)cc(Oc2c(C(F)(F)F)ccn(CC(=O)Nc3ccc(C(F)(F)F)cc3)c2=O)c1 | > 82.3
15 | N#Cc1cc(Cl)cc(Oc2c(C(F)(F)F)ccn(CC(=O)Nc3cccnc3)c2=O)c1 | > 111
16 | N#Cc1cc(Cl)cc(Oc2c(C(F)(F)F)ccn(CC(=O)Nc3ccc([N+](=O)[O-])cc3)c2=O)c1 | 145
17 | CC(C)OC(=O)OCn1nc(Cn2ccc(C(F)(F)F)c(Oc3cc(Cl)cc(C#N)c3)c2=O)n(C)c1=O | 152
18 | Cn1c(Cn2ccc(C(F)(F)F)c(Oc3cc(Cl)cc(C#N)c3)c2=O)nn(COP(=O)(O)O)c1=O | > 234

Tested on: not listed separately
Assay: Aqueous solubility of the compound in water at pH 7.0 after overnight incubation by HPLC-UV analysis
Assay type: physicochemical
Details: not given

Row | Compound | solubility [µg/mL]
19 | CC(C)OC(=O)OCn1nc(Cn2ccc(C(F)(F)F)c(Oc3cc(Cl)cc(C#N)c3)c2=O)n(C)c1=O | 27 (≈ 0.0498 mM)
20 | Cn1c(Cn2ccc(C(F)(F)F)c(Oc3cc(Cl)cc(C#N)c3)c2=O)nn(COP(=O)(O)O)c1=O | 4560 (≈ 8.51 mM)

Tested on: not listed separately
Assay: Selectivity index, ratio of CC50 for mock-infected human MT4 cells to EC50 for HIV2 ROD infected in human MT4 cells
Assay type: toxicity, cell-based
Details: read-out: Selectivity Index

Row | Compound | selectivity ratio
21 | N#Cc1cc(Cl)cc(Oc2c(C(F)(F)F)ccn(CC(=O)Nc3ccc(F)cc3)c2=O)c1 | 1
22 | N#Cc1cc(Cl)cc(Oc2c(C(F)(F)F)ccn(CC(=O)Nc3ccncc3)c2=O)c1 | < 1
23 | CS(=O)(=O)c1ccc(NC(=O)Cn2ccc(C(F)(F)F)c(Oc3cc(Cl)cc(C#N)c3)c2=O)cc1 | < 1
24 | N#Cc1cc(Cl)cc(Oc2c(C(F)(F)F)ccn(CC(=O)Nc3ccc(C(F)(F)F)cc3)c2=O)c1 | < 1
25 | N#Cc1cc(Cl)cc(Oc2c(C(F)(F)F)ccn(CC(=O)Nc3cccnc3)c2=O)c1 | < 1
26 | N#Cc1cc(Cl)cc(Oc2c(C(F)(F)F)ccn(CC(=O)Nc3ccc([N+](=O)[O-])cc3)c2=O)c1 | > 2
27 | CC(C)OC(=O)OCn1nc(Cn2ccc(C(F)(F)F)c(Oc3cc(Cl)cc(C#N)c3)c2=O)n(C)c1=O | > 2
28 | Cn1c(Cn2ccc(C(F)(F)F)c(Oc3cc(Cl)cc(C#N)c3)c2=O)nn(COP(=O)(O)O)c1=O | 1

Tested on: Human immunodeficiency virus 1
Assay: Antiviral activity against wild type HIV1 3B infected in human MT4 cells assessed as inhibition of virus-induced cytopathic effect after 5 days by MTT assay
Assay type: functional, organism-based
Details: Human immunodeficiency virus 1, 3B, MT4, 120 h

Row | Compound | EC50 [µM]
29 | N#Cc1cc(Cl)cc(Oc2c(C(F)(F)F)ccn(CC(=O)Nc3ccc(F)cc3)c2=O)c1 | 188
30 | N#Cc1cc(Cl)cc(Oc2c(C(F)(F)F)ccn(CC(=O)Nc3ccncc3)c2=O)c1 | 32.4
31 | CS(=O)(=O)c1ccc(NC(=O)Cn2ccc(C(F)(F)F)c(Oc3cc(Cl)cc(C#N)c3)c2=O)cc1 | 42.1
32 | N#Cc1cc(Cl)cc(Oc2c(C(F)(F)F)ccn(CC(=O)Nc3ccc(C(F)(F)F)cc3)c2=O)c1 | 12.3
33 | N#Cc1cc(Cl)cc(Oc2c(C(F)(F)F)ccn(CC(=O)Nc3cccnc3)c2=O)c1 | > 111
34 | N#Cc1cc(Cl)cc(Oc2c(C(F)(F)F)ccn(CC(=O)Nc3ccc([N+](=O)[O-])cc3)c2=O)c1 | 1.4
35 | CC(C)OC(=O)OCn1nc(Cn2ccc(C(F)(F)F)c(Oc3cc(Cl)cc(C#N)c3)c2=O)n(C)c1=O | 1.22
36 | Cn1c(Cn2ccc(C(F)(F)F)c(Oc3cc(Cl)cc(C#N)c3)c2=O)nn(COP(=O)(O)O)c1=O | 0.262

Tested on: not listed separately
Assay: Aqueous solubility of the compound at phosphate buffer of pH 2.0 after overnight incubation by HPLC-UV analysis
Assay type: physicochemical
Details: not given

Row | Compound | solubility [µg/mL]
37 | CC(C)OC(=O)OCn1nc(Cn2ccc(C(F)(F)F)c(Oc3cc(Cl)cc(C#N)c3)c2=O)n(C)c1=O | 14 (≈ 0.0258 mM)
38 | Cn1c(Cn2ccc(C(F)(F)F)c(Oc3cc(Cl)cc(C#N)c3)c2=O)nn(COP(=O)(O)O)c1=O | 4220 (≈ 7.87 mM)

Target: Human immunodeficiency virus type 1 reverse transcriptase (Human immunodeficiency virus 1, UniProt Q72547)
Assay: Inhibition of recombinant wild type HIV1 reverse transcriptase assessed as reduction in biotin-dUTP incorporation using poly(A)/oligo(dT)15 as template/primer after 1 hr by ELISA
Details: not given

Row | Compound | IC50 [µM]
39 | N#Cc1cc(Cl)cc(Oc2c(C(F)(F)F)ccn(CC(=O)Nc3ccc(F)cc3)c2=O)c1 | 72
40 | N#Cc1cc(Cl)cc(Oc2c(C(F)(F)F)ccn(CC(=O)Nc3ccncc3)c2=O)c1 | 32.5
41 | CS(=O)(=O)c1ccc(NC(=O)Cn2ccc(C(F)(F)F)c(Oc3cc(Cl)cc(C#N)c3)c2=O)cc1 | 1
42 | N#Cc1cc(Cl)cc(Oc2c(C(F)(F)F)ccn(CC(=O)Nc3ccc(C(F)(F)F)cc3)c2=O)c1 | 30.1
43 | N#Cc1cc(Cl)cc(Oc2c(C(F)(F)F)ccn(CC(=O)Nc3cccnc3)c2=O)c1 | 133
44 | N#Cc1cc(Cl)cc(Oc2c(C(F)(F)F)ccn(CC(=O)Nc3ccc([N+](=O)[O-])cc3)c2=O)c1 | 1.27
45 | CC(C)OC(=O)OCn1nc(Cn2ccc(C(F)(F)F)c(Oc3cc(Cl)cc(C#N)c3)c2=O)n(C)c1=O | 2.11
46 | Cn1c(Cn2ccc(C(F)(F)F)c(Oc3cc(Cl)cc(C#N)c3)c2=O)nn(COP(=O)(O)O)c1=O | 0.93

Tested on: not listed separately
Assay: Cytotoxicity against mock-infected human MT4 cells assessed as reduction in cell viability after 5 days by MTT assay
Assay type: cell-based
Details: not given

Row | Compound | CC50 at 120 h [µM]
47 | N#Cc1cc(Cl)cc(Oc2c(C(F)(F)F)ccn(CC(=O)Nc3ccc(F)cc3)c2=O)c1 | > 269
48 | N#Cc1cc(Cl)cc(Oc2c(C(F)(F)F)ccn(CC(=O)Nc3ccncc3)c2=O)c1 | 133
49 | CS(=O)(=O)c1ccc(NC(=O)Cn2ccc(C(F)(F)F)c(Oc3cc(Cl)cc(C#N)c3)c2=O)cc1 | 112
50 | N#Cc1cc(Cl)cc(Oc2c(C(F)(F)F)ccn(CC(=O)Nc3ccc(C(F)(F)F)cc3)c2=O)c1 | 82.3
51 | N#Cc1cc(Cl)cc(Oc2c(C(F)(F)F)ccn(CC(=O)Nc3cccnc3)c2=O)c1 | 111
52 | N#Cc1cc(Cl)cc(Oc2c(C(F)(F)F)ccn(CC(=O)Nc3ccc([N+](=O)[O-])cc3)c2=O)c1 | > 254
53 | CC(C)OC(=O)OCn1nc(Cn2ccc(C(F)(F)F)c(Oc3cc(Cl)cc(C#N)c3)c2=O)n(C)c1=O | > 231
54 | Cn1c(Cn2ccc(C(F)(F)F)c(Oc3cc(Cl)cc(C#N)c3)c2=O)nn(COP(=O)(O)O)c1=O | > 234

Tested on: not listed separately
Assay: Aqueous solubility of the compound in phosphate buffer of pH 7.4 after overnight incubation by HPLC-UV analysis
Assay type: physicochemical
Details: not given

Row | Compound | solubility [µg/mL]
55 | CC(C)OC(=O)OCn1nc(Cn2ccc(C(F)(F)F)c(Oc3cc(Cl)cc(C#N)c3)c2=O)n(C)c1=O | 29 (≈ 0.0535 mM)
56 | Cn1c(Cn2ccc(C(F)(F)F)c(Oc3cc(Cl)cc(C#N)c3)c2=O)nn(COP(=O)(O)O)c1=O | 5190 (≈ 9.68 mM)

Tested on: Human immunodeficiency virus 1
Assay: Antiviral activity against HIV1 RES056 containing reverse transcriptase K103N + Y181C mutant infected in human MT4 cells assessed as inhibition of virus-induced cytopathic effect after 5 days by MTT assay
Assay type: functional, organism-based
Details: Human immunodeficiency virus 1, RES056, MT4, 120 h

Row | Compound | EC50 [µM]
57 | N#Cc1cc(Cl)cc(Oc2c(C(F)(F)F)ccn(CC(=O)Nc3ccc(F)cc3)c2=O)c1 | > 269
58 | N#Cc1cc(Cl)cc(Oc2c(C(F)(F)F)ccn(CC(=O)Nc3ccncc3)c2=O)c1 | > 133
59 | CS(=O)(=O)c1ccc(NC(=O)Cn2ccc(C(F)(F)F)c(Oc3cc(Cl)cc(C#N)c3)c2=O)cc1 | > 112
60 | N#Cc1cc(Cl)cc(Oc2c(C(F)(F)F)ccn(CC(=O)Nc3ccc(C(F)(F)F)cc3)c2=O)c1 | > 82.3
61 | N#Cc1cc(Cl)cc(Oc2c(C(F)(F)F)ccn(CC(=O)Nc3cccnc3)c2=O)c1 | > 111
62 | N#Cc1cc(Cl)cc(Oc2c(C(F)(F)F)ccn(CC(=O)Nc3ccc([N+](=O)[O-])cc3)c2=O)c1 | > 254
63 | CC(C)OC(=O)OCn1nc(Cn2ccc(C(F)(F)F)c(Oc3cc(Cl)cc(C#N)c3)c2=O)n(C)c1=O | > 231
64 | Cn1c(Cn2ccc(C(F)(F)F)c(Oc3cc(Cl)cc(C#N)c3)c2=O)nn(COP(=O)(O)O)c1=O | > 234

Tested on: not listed separately
Assay: Selectivity index, ratio of CC50 for mock-infected human MT4 cells to EC50 for wild type HIV1 3B infected in human MT4 cells
Assay type: toxicity, cell-based
Details: read-out: Selectivity Index

Row | Compound | selectivity ratio
65 | N#Cc1cc(Cl)cc(Oc2c(C(F)(F)F)ccn(CC(=O)Nc3ccc(F)cc3)c2=O)c1 | > 1
66 | N#Cc1cc(Cl)cc(Oc2c(C(F)(F)F)ccn(CC(=O)Nc3ccncc3)c2=O)c1 | 4
67 | CS(=O)(=O)c1ccc(NC(=O)Cn2ccc(C(F)(F)F)c(Oc3cc(Cl)cc(C#N)c3)c2=O)cc1 | 3
68 | N#Cc1cc(Cl)cc(Oc2c(C(F)(F)F)ccn(CC(=O)Nc3ccc(C(F)(F)F)cc3)c2=O)c1 | 7
69 | N#Cc1cc(Cl)cc(Oc2c(C(F)(F)F)ccn(CC(=O)Nc3cccnc3)c2=O)c1 | < 1
70 | N#Cc1cc(Cl)cc(Oc2c(C(F)(F)F)ccn(CC(=O)Nc3ccc([N+](=O)[O-])cc3)c2=O)c1 | > 181
71 | CC(C)OC(=O)OCn1nc(Cn2ccc(C(F)(F)F)c(Oc3cc(Cl)cc(C#N)c3)c2=O)n(C)c1=O | > 189
72 | Cn1c(Cn2ccc(C(F)(F)F)c(Oc3cc(Cl)cc(C#N)c3)c2=O)nn(COP(=O)(O)O)c1=O | > 893

— ChEMBL document CHEMBL4330114 (Bioorg Med Chem, 2019)
